Laboratory results reported in patent US20240116985A1, “STAPLED PEPTIDES AND METHODS THEREOF” (priority 2020, published 2024).

Key:
[1] = target: T1, beta-catenin/TCF4 engagement (Homo sapiens, UniProt P35222); assay: Nano-BRET target engagement assay (B-cat-Halo & TCF4-Luc in HEK293 cells); format: cell-based; details: absolute IC50; read-out: NanoBRET Abs IC50
T1 construct: expressed in transfected cells; host or cells: HEK293
T1 sequence (P35222 1-781): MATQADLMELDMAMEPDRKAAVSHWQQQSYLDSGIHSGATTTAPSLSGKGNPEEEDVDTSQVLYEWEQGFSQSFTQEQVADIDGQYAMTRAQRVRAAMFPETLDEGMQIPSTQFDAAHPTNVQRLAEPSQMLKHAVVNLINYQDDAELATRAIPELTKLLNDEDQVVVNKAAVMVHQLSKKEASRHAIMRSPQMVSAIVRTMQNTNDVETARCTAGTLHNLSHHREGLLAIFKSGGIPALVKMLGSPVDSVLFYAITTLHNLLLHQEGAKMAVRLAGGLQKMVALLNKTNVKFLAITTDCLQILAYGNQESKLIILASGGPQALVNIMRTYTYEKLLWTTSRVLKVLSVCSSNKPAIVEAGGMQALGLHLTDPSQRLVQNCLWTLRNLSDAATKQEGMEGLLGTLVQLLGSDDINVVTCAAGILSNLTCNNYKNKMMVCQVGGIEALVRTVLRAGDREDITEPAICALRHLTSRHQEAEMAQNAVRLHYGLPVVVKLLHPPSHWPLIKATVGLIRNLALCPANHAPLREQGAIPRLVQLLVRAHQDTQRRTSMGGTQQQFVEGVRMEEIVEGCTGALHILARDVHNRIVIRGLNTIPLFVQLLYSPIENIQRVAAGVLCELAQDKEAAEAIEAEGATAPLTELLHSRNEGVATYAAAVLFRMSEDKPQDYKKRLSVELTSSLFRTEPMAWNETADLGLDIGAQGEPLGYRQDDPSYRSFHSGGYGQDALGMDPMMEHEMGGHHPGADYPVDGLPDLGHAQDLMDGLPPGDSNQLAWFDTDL

[2] = target: T2, full-length beta-Catenin (Uniprot ID P35222) (Homo sapiens, UniProt P35222); assay: Fluorescence polarization IC50 (beta-catenin / 5FAM-TCF4 10-53 competition); format: binding; details: fluorescence polarization; read-out: beta-Catenin FP IC50
T2 construct: 10 nM full-length beta-Catenin (Uniprot ID P35222)
T2 sequence (P35222 1-781): T1 sequence (P35222 1-781)

Compound | IC50 [1] [nM] | IC50 [2] [nM]
CC(=O)N1CCC[C@]12CC=CCCCC1(CCCC=CCCCOC(=O)N3CC[C@@](C(=O)N[C@@H](Cc4ccsc4)C(=O)N[C@@H](Cc4ccc(Cl)c(Cl)c4)C(=O)N[C@@H](CCC(N)=O)C(N)=O)(C3)NC(=O)[C@H](CC(N)=O)NC(=O)[C@H](Cc3ccccc3)NC(=O)[C@H](C)NC(=O)C(C)(C)NC(=O)[C@H]([C@@H](C)O)NC(=O)[C@H](CC(N)=O)NC1=O)NC(=O)[C@H](CC(C)(C)C)NC(=O)[C@H](CC(=O)O)NC2=O (stereo partly drawn) [I-2417, Ac-PL3-Asp-Npg-B5-Asn-Thr-Aib-Ala-Phe-Asn-PyrS2-3Thi-34C1F-Gln-NH2] | 21600 | 158
CC(=O)N1CCC[C@]12CC=CCCCC1(CCCC=CCCCOC(=O)N3CC[C@@](C(=O)N[C@@H](Cc4ccccc4)C(=O)N[C@@H](Cc4csc5ccccc45)C(=O)N[C@@H](CCCCN)C(N)=O)(C3)NC(=O)[C@H](CC(C)C)NC(=O)[C@H](Cc3ccccc3)NC(=O)[C@H](C)NC(=O)[C@H](CCC(N)=O)NC(=O)[C@H](CCC(N)=O)NC(=O)[C@H](CC(=O)O)NC1=O)NC(=O)[C@H](CC1CCCCC1)NC(=O)[C@H](CC(N)=O)NC2=O (stereo partly drawn) [I-2421, Ac-PL3-Asn-Cha-B5-Asp-Gln-Gln-Ala-Phe-Leu-PyrS2-Phe-BztA-Lys-NH2] | > 20000 | 145
CC(=O)N1CCC[C@]12CC=CCCCC1(CCCC=CCCCOC(=O)N3CC[C@@](C(=O)N[C@@H](Cc4ccccc4)C(=O)N[C@@H](Cc4csc5ccccc45)C(=O)N[C@@H](CCCCN)C(N)=O)(C3)NC(=O)[C@H](CC(C)C)NC(=O)[C@H](Cc3ccccc3)NC(=O)[C@H](C)NC(=O)[C@H](CCCCNC(C)C)NC(=O)[C@H](CCC(N)=O)NC(=O)[C@H](CC(=O)O)NC1=O)NC(=O)[C@H](CC1CCCCC1)NC(=O)[C@H](CC(=O)O)NC2=O (stereo partly drawn) [I-2429, Ac-PL3-Asp-Cha-B5-Asp-Gln-iPrLys-Ala-Phe-Leu-PyrS2-Phe-BztA-Lys-NH2] | > 20000 | 10
CC(=O)N1CCC[C@]12CC=CCCCC1(CCCC=CCCCOC(=O)N3CC[C@@](C(=O)N[C@@H](Cc4ccsc4)C(=O)N[C@@H](Cc4csc5ccccc45)C(=O)N[C@@H](CCC(N)=O)C(N)=O)(C3)NC(=O)[C@H](CC(C)C)NC(=O)[C@H](Cc3ccccc3)NC(=O)[C@H](C)NC(=O)[C@H](CCCCNC(C)C)NC(=O)[C@H](CCC(N)=O)NC(=O)[C@H](CC(=O)O)NC1=O)NC(=O)[C@H](CC1CCCCC1)NC(=O)[C@H](CC(N)=O)NC2=O (stereo partly drawn) [I-2446, Ac-PL3-Asn-Cha-B5-Asp-Gln-iPrLys-Ala-Phe-Leu-PyrS2-3Thi-BztA-Gln-NH2] | > 20000 | 93
CC(=O)N1CCC[C@]12CC=CCCCC1(CCCC=CCCCOC(=O)N3CC[C@@](C(=O)N[C@@H](Cc4ccccc4)C(=O)N[C@@H](Cc4csc5ccccc45)C(=O)N[C@@H](CCC(N)=O)C(N)=O)(C3)NC(=O)[C@H](CC(C)C)NC(=O)[C@H](Cc3ccccc3)NC(=O)[C@H](C)NC(=O)[C@H](CCCCNC(C)C)NC(=O)[C@H]([C@@H](C)O)NC(=O)[C@H](CC(=O)O)NC1=O)NC(=O)[C@H](CC1CCCCC1)NC(=O)[C@H](CC(N)=O)NC2=O (stereo partly drawn) [I-2448, Ac-PL3-Asn-Cha-B5-Asp-Thr-iPrLys-Ala-Phe-Leu-PyrS2-Phe-BztA-Gln-NH2] | > 20000 | 84
CC(=O)N1CCC[C@]12CC=CCCCC1(CCCC=CCCCOC(=O)N3CC[C@@](C(=O)N[C@@H](Cc4ccccc4C(F)(F)F)C(=O)N[C@H](C(=O)N[C@@H](CCC(N)=O)C(N)=O)[C@@H](C)c4csc5ccccc45)(C3)NC(=O)[C@H](CC(C)C)NC(=O)[C@H](Cc3ccccc3)NC(=O)[C@H](C)NC(=O)[C@H](C)NC(=O)[C@H](Cc3cccc(C(=O)O)c3)NC(=O)[C@H](CC(=O)O)NC1=O)NC(=O)[C@H](CC(C)(C)C)NC(=O)[C@H](CC(=O)O)NC2=O (stereo partly drawn) [I-2456, Ac-PL3-Asp-Npg-B5-Asp-3COOHF-Ala-Ala-Phe-Leu-PyrS2-2F3MeF-SbMeBztA-Gln-NH2] | 8100 | 49
CC(=O)N1CCC[C@]12CC=CCCCC1(CCCC=CCCCOC(=O)N3CC[C@@](C(=O)N[C@@H](Cc4ccccc4C(F)(F)F)C(=O)N[C@H](C(=O)N[C@@H](C)C(N)=O)[C@@H](C)c4csc5ccccc45)(C3)NC(=O)[C@H](CC(C)C)NC(=O)[C@H](Cc3ccccc3)NC(=O)[C@H](C)NC(=O)[C@H](CCC(N)=O)NC(=O)[C@H](Cc3cccc(C(=O)O)c3)NC(=O)[C@H](CC(=O)O)NC1=O)NC(=O)[C@H](CC(C)(C)C)NC(=O)[C@H](CC(=O)O)NC2=O (stereo partly drawn) [I-2457, Ac-PL3-Asp-Npg-B5-Asp-3COOHF-Gln-Ala-Phe-Leu-PyrS2-2F3MeF-SbMeBztA-Ala-NH2] | 20800 | 52
CC(=O)N1CCC[C@]12CC=CCCCC1(CCCC=CCCCOC(=O)N3CC[C@@](C(=O)N[C@@H](Cc4ccccc4C(F)(F)F)C(=O)N[C@H](C(=O)N[C@@H](CCC(N)=O)C(N)=O)[C@H](C)c4csc5ccccc45)(C3)NC(=O)[C@H](CC(C)C)NC(=O)[C@H](Cc3ccccc3)NC(=O)[C@H](C)NC(=O)[C@H](C)NC(=O)[C@H](Cc3cccc(C(=O)O)c3)NC(=O)[C@H](CC(=O)O)NC1=O)NC(=O)[C@H](CC(C)(C)C)NC(=O)[C@H](CC(=O)O)NC2=O (stereo partly drawn) [I-2458, Ac-PL3-Asp-Npg-B5-Asp-3COOHF-Ala-Ala-Phe-Leu-PyrS2-2F3MeF-RbMeBztA-Gln-NH2] | 5900 | 33

The next lines start with the values.

IC50 [1] [nM] | IC50 [2] [nM] | Compound
> 20000 | 147 | CC(=O)N1CCC[C@]12CC=CCCCC1(CCCC=CCCCOC(=O)N3CC[C@@](C(=O)N[C@@H](Cc4ccsc4)C(=O)N[C@@H](Cc4csc5ccccc45)C(=O)N[C@@H](CC(N)=O)C(N)=O)(C3)NC(=O)[C@H](CC(N)=O)NC(=O)[C@H](Cc3ccccc3)NC(=O)[C@H](C)NC(=O)C(C)(C)NC(=O)[C@H]([C@@H](C)O)NC(=O)[C@H](CC(N)=O)NC1=O)NC(=O)[C@H](CC(C)(C)C)NC(=O)[C@H](CC(=O)O)NC2=O (stereo partly drawn) [I-2415, Ac-PL3-Asp-Npg-B5-Asn-Thr-Aib-Ala-Phe-Asn-PyrS2-3Thi-BztA-Asn-NH2]
> 20000 | 203 | CC(=O)N1CCC[C@]12CC=CCCCC1(CCCC=CCCCOC(=O)N3CC[C@@](C(=O)N[C@@H](Cc4ccccc4)C(=O)N[C@@H](Cc4csc5ccccc45)C(=O)N[C@@H](CCCCN)C(N)=O)(C3)NC(=O)[C@H](CC(C)C)NC(=O)[C@H](Cc3ccccc3)NC(=O)[C@H](C)NC(=O)[C@H](CCO)NC(=O)[C@H](CCC(N)=O)NC(=O)[C@H](CC(=O)O)NC1=O)NC(=O)[C@H](CC1CCCCC1)NC(=O)[C@H](CC(N)=O)NC2=O (stereo partly drawn) [I-2419, Ac-PL3-Asn-Cha-B5-Asp-Gln-Hse-Ala-Phe-Leu-PyrS2-Phe-BztA-Lys-NH2]
4500 | 32 | CC(=O)N1CCC[C@]12CC=CCCCC1(CCCC=CCCCOC(=O)N3CC[C@@](C(=O)N[C@@H](Cc4ccccc4C(F)(F)F)C(=O)N[C@@H](Cc4csc5ccccc45)C(=O)N[C@@H](CCC(N)=O)C(N)=O)(C3)NC(=O)[C@H](CC(C)C)NC(=O)[C@H](Cc3ccccc3)NC(=O)[C@H](C)NC(=O)[C@H](C)NC(=O)[C@H](Cc3cc(C(=O)O)cc(C(C)C)c3)NC(=O)[C@H](CC(=O)O)NC1=O)NC(=O)[C@H](CC(C)(C)C)NC(=O)[C@H](CC(=O)O)NC2=O (stereo partly drawn) [I-2430, Ac-PL3-Asp-Npg-B5-Asp-5iPr3COOHF-Ala-Ala-Phe-Leu-PyrS2-2F3MeF-BztA-Gln-NH2]
7000 | 33 | CC(=O)N1CCC[C@]12CC=CCCCC1(CCCC=CCCCOC(=O)N3CC[C@@](C(=O)N[C@@H](Cc4ccccc4C(F)(F)F)C(=O)N[C@@H](Cc4csc5ccccc45)C(=O)N[C@@H](C)C(N)=O)(C3)NC(=O)[C@H](CC(C)C)NC(=O)[C@H](Cc3ccccc3)NC(=O)[C@H](C)NC(=O)[C@H](CCC(N)=O)NC(=O)[C@H](Cc3cc(C(=O)O)cc(C(C)C)c3)NC(=O)[C@H](CC(=O)O)NC1=O)NC(=O)[C@H](CC(C)(C)C)NC(=O)[C@H](CC(=O)O)NC2=O (stereo partly drawn) [I-2431, Ac-PL3-Asp-Npg-B5-Asp-5iPr3COOHF-Gln-Ala-Phe-Leu-PyrS2-2F3MeF-BztA-Ala-NH2]
> 20000 | 63 | CC(=O)N1CCC[C@]12CC=CCCCC1(CCCC=CCCCOC(=O)N3CC[C@@](C(=O)N[C@@H](Cc4ccccc4)C(=O)N[C@@H](Cc4csc5ccccc45)C(=O)N[C@@H](CCCCN)C(N)=O)(C3)NC(=O)[C@H](CC(C)C)NC(=O)[C@H](Cc3ccccc3)NC(=O)[C@H](C)NC(=O)[C@H](CCCCNC(C)C)NC(=O)[C@H]([C@@H](C)O)NC(=O)[C@H](CC(=O)O)NC1=O)NC(=O)[C@H](CC1CCCCC1)NC(=O)[C@H](CC(N)=O)NC2=O (stereo partly drawn) [I-2450, Ac-PL3-Asn-Cha-B5-Asp-Thr-iPrLys-Ala-Phe-Leu-PyrS2-Phe-BztA-Lys-NH2]
